From PMC4965013, “Open Source Drug Discovery with the Malaria Box Compound Collection for Neglected Diseases and Beyond” (PLoS Pathogens, 2016)
One block for each compound: values may come before it.

Experiments:
[1] = test system: P. falciparum 3D7 trophozoites; assay: Metabolomic fingerprint profiling LC-MS; format: cell-based, Plasmodium falciparum; set-up: UDP-D-glucose / ADP-D-glucose: unit not given here; conditions: for Acetyllysine / N-acetyl-L-ornithine / N-carbamoyl-L-aspartate / NADPH / dAMP / dCMP / dTDP / dTMP / dTTP / dihydroorotate / orotate / DLH / DLS/SDL/SID / PD / PEE / PVNF / 3-phosphoglycerate / ADP-D-glucose / ATP / CDP / D-sedoheptulose-1/7-phosphate / FAD / GMP / NAD+ / NADP+ / Octoluse Bisphosphate / Pyroglutamic acid / UDP-D-glucose / UDP-D-glucuronate / UDP-N-acetyl-glucosamine / UDP / UMP / UTP / a-ketoglutarate / citrate/isocitrate / cytidine / dATP / dGMP/AMP / fumarate / glucose-1/6-phosphate / glycerate / guanine / guanosine / hypoxanthine / indole / inosine / nicotinate / ornithine / phosphoenolpyruvate / pyruvate / ribose-phosphate / sarcosine/alanine / sn-glycerol-3-phosphate / succinate/methylmalonic acid / uridine / xanthosine: S2 Table Metabolomics; for Acetyllysine: metabolite Acetyllysine; for N-acetyl-L-ornithine: metabolite N-acetyl-L-ornithine; for N-carbamoyl-L-aspartate: metabolite N-carbamoyl-L-aspartate; for NADPH: metabolite NADPH; for dAMP: metabolite dAMP; for dCMP: metabolite dCMP; for dTDP: metabolite dTDP; for dTMP: metabolite dTMP; for dTTP: metabolite dTTP; for dihydroorotate: metabolite dihydroorotate; for orotate: metabolite orotate; for DLH: peptide DLH; for DLS/SDL/SID: peptide DLS/SDL/SID; for PD: peptide PD; for PEE: peptide PEE; for PVNF: peptide PVNF; for 3-phosphoglycerate: metabolite 3-phosphoglycerate; for ADP-D-glucose: metabolite ADP-D-glucose; for ATP: metabolite ATP; for CDP: metabolite CDP; for CDP / D-sedoheptulose-1/7-phosphate / GMP / Octoluse Bisphosphate / UDP / UMP / UTP / citrate/isocitrate / dGMP/AMP / fumarate / glucose-1/6-phosphate / glycerate / guanine / guanosine / inosine / pyruvate / sarcosine/alanine / succinate/methylmalonic acid / uridine / xanthosine: change in metabolite level after compound treatment; for D-sedoheptulose-1/7-phosphate: metabolite D-sedoheptulose-1/7-phosphate; for FAD: metabolite FAD; for GMP: metabolite GMP; for NAD+: metabolite NAD+; for NADP+: metabolite NADP+; for Octoluse Bisphosphate: metabolite Octoluse Bisphosphate; for Pyroglutamic acid: metabolite Pyroglutamic acid; for UDP-D-glucose: metabolite UDP-D-glucose; for UDP-D-glucuronate: metabolite UDP-D-glucuronate; for UDP-N-acetyl-glucosamine: metabolite UDP-N-acetyl-glucosamine; for UDP: metabolite UDP; for UMP: metabolite UMP; for UTP: metabolite UTP; for a-ketoglutarate: metabolite a-ketoglutarate; for citrate/isocitrate: metabolite citrate/isocitrate; for cytidine: metabolite cytidine; for dATP: metabolite dATP; for dGMP/AMP: metabolite dGMP/AMP; for fumarate: metabolite fumarate; for glucose-1/6-phosphate: metabolite glucose-1/6-phosphate; for glycerate: metabolite glycerate; for guanine: metabolite guanine; for guanosine: metabolite guanosine; for hypoxanthine: metabolite hypoxanthine; for indole: metabolite indole; for inosine: metabolite inosine; for 2_3-Diphosphoglyceric acid / 4-phosphopantothenate / 6-phospho-D-gluconate / FMN / IMP / Pyrophosphate / Sedoheptoluse bisphosphate / cyclic-AMP / glutathione disulfide / lactate / myo-inositol: metabolite level change after treatment; for nicotinate: metabolite nicotinate; for ornithine: metabolite ornithine; for phosphoenolpyruvate: metabolite phosphoenolpyruvate; for pyruvate: metabolite pyruvate; for ribose-phosphate: metabolite ribose-phosphate; for sarcosine/alanine: metabolite sarcosine/alanine; for sn-glycerol-3-phosphate: metabolite sn-glycerol-3-phosphate; for succinate/methylmalonic acid: metabolite succinate/methylmalonic acid; for uridine: metabolite uridine; for xanthosine: metabolite xanthosine
P. falciparum = assay: EC50 listed in S2 Table Metabolomics (used to set the concentration tested); format: cell-based; conditions: Plasmodium falciparum; EC50 used for Factor_XEC50 in metabolomics; read-out: EC50_nM

Structure (SMILES): Cc1ccc(-c2cc3c(nn2)-c2ccccc2C3=O)cc1 [MMV666021]
- Acetyllysine [1]: -0.3916
- N-acetyl-L-ornithine [1]: -0.1425
- N-carbamoyl-L-aspartate [1]: 3.794
- NADPH [1]: 1.165
- dAMP [1]: -0.6653
- dCMP [1]: -0.7362
- dTDP [1]: -1.533
- dTMP [1]: -1.5256
- dTTP [1]: -1.181
- dihydroorotate [1]: 4.247
- orotate [1]: -2.195
- DLH [1]: 0.5354
- DLS/SDL/SID [1]: 0.5895
- PD [1]: 0.02372
- PEE [1]: 0.1996
- PVNF [1]: 0.3334
- 3-phosphoglycerate [1]: 0.4336
- ADP-D-glucose [1]: 0.0706
- ATP [1]: 0.08889
- CDP [1]: -1.433
- D-sedoheptulose-1/7-phosphate [1]: -0.7013
- FAD [1]: 0.04196
- GMP [1]: 1.198
- NAD+ [1]: -0.07934
- NADP+ [1]: 0.07896
- Octoluse Bisphosphate [1]: 0.0421
- Pyroglutamic acid [1]: -0.4992
- UDP-D-glucose [1]: 0.003691
- UDP-D-glucuronate [1]: -0.1073
- UDP-N-acetyl-glucosamine [1]: -0.2024
- UDP [1]: -2.005
- UMP [1]: -0.6482
- UTP [1]: -1.713
- a-ketoglutarate [1]: -0.6601
- citrate/isocitrate [1]: -2.126
- cytidine [1]: 0.5518
- dATP [1]: 0.3766
- dGMP/AMP [1]: -0.5358
- fumarate [1]: 0.2361
- glucose-1/6-phosphate [1]: 0.01993
- glycerate [1]: -1.131
- guanine [1]: -0.835
- guanosine [1]: -1.803
- hypoxanthine [1]: -0.06084
- indole [1]: -0.09156
- inosine [1]: -0.5269
- 2_3-Diphosphoglyceric acid [1]: -0.1865
- 4-phosphopantothenate [1]: -0.7776
- 6-phospho-D-gluconate [1]: 0.009051
- FMN [1]: 0.04698
- IMP [1]: -0.1163
- Pyrophosphate [1]: -0.09516
- Sedoheptoluse bisphosphate [1]: -0.2318
- cyclic-AMP [1]: -0.2358
- glutathione disulfide [1]: -0.3199
- lactate [1]: -0.9153
- myo-inositol [1]: -1.23
- nicotinate [1]: -1.397
- ornithine [1]: 0.08018
- phosphoenolpyruvate [1]: 0.1844
- pyruvate [1]: -1.786
- ribose-phosphate [1]: 0.5392
- sarcosine/alanine [1]: -0.3874
- sn-glycerol-3-phosphate [1]: 0.4697
- succinate/methylmalonic acid [1]: -0.7859
- uridine [1]: -1.3045
- xanthosine [1]: -0.5693
- EC50 (P. falciparum): 94.4 nM

- EC50 (P. falciparum): 78.2 nM
Structure (SMILES): COc1cc(OC)c(N(C)C(=O)c2cc3c(s2)-c2ccccc2S(=O)(=O)C3)cc1Cl [MMV006427]
- Acetyllysine [1]: -3.0678
- N-acetyl-L-ornithine [1]: -2.077
- N-carbamoyl-L-aspartate [1]: -3.4047
- NADPH [1]: -0.4646
- dAMP [1]: 2.306
- dCMP [1]: 1.395
- dTDP [1]: 3.378
- dTMP [1]: 4.553
- dTTP [1]: 1.85
- dihydroorotate [1]: -2.575
- orotate [1]: 0.4264
- DLH [1]: -5.058
- DLS/SDL/SID [1]: -4.1926
- PD [1]: -1.1837
- PEE [1]: -3.666
- PVNF [1]: -5.242
- 3-phosphoglycerate [1]: 0.1517
- ADP-D-glucose [1]: -0.124
- ATP [1]: -1.807
- CDP [1]: 0.8052
- D-sedoheptulose-1/7-phosphate [1]: -0.2773
- FAD [1]: -1.0601
- GMP [1]: -2.558
- NAD+ [1]: 0.783
- NADP+ [1]: 0.3092
- Octoluse Bisphosphate [1]: -2.061
- Pyroglutamic acid [1]: -0.1068
- UDP-D-glucose [1]: 0.214
- UDP-D-glucuronate [1]: -0.1144
- UDP-N-acetyl-glucosamine [1]: 0.3636
- UDP [1]: 0.3063
- UMP [1]: 0.3348
- UTP [1]: -0.8427
- a-ketoglutarate [1]: -0.411
- citrate/isocitrate [1]: 0.0762
- cytidine [1]: 0.3423
- dATP [1]: -0.2111
- dGMP/AMP [1]: -0.9855
- fumarate [1]: -0.3788
- glucose-1/6-phosphate [1]: -0.5462
- glycerate [1]: -0.8092
- guanine [1]: 0.1326
- guanosine [1]: 0.04127
- hypoxanthine [1]: -0.06662
- indole [1]: -0.3106
- inosine [1]: 0.06183
- 2_3-Diphosphoglyceric acid [1]: -0.9034
- 4-phosphopantothenate [1]: -0.1012
- 6-phospho-D-gluconate [1]: -0.09619
- FMN [1]: 0.1283
- IMP [1]: 0.7504
- Pyrophosphate [1]: -1.05
- Sedoheptoluse bisphosphate [1]: -0.7918
- cyclic-AMP [1]: -0.9224
- glutathione disulfide [1]: -0.1859
- lactate [1]: -1.014
- myo-inositol [1]: -1.304
- nicotinate [1]: 0.5771
- ornithine [1]: 0.02692
- phosphoenolpyruvate [1]: 0.2074
- pyruvate [1]: -1.66
- ribose-phosphate [1]: -0.6233
- sarcosine/alanine [1]: -1.711
- sn-glycerol-3-phosphate [1]: 0.334
- succinate/methylmalonic acid [1]: 0.04426
- uridine [1]: -0.5041
- xanthosine [1]: -1.485

Structure (SMILES): O=C(CSc1nccn2nc(-c3ccccc3)cc12)Nc1cc(C(F)(F)F)ccc1Cl [MMV396678]
- Acetyllysine [1]: -0.4877
- N-acetyl-L-ornithine [1]: -0.4938
- N-carbamoyl-L-aspartate [1]: 3.602
- NADPH [1]: -0.3509
- dAMP [1]: -2.425
- dCMP [1]: -0.1067
- dTDP [1]: -0.8621
- dTMP [1]: -0.7966
- dTTP [1]: -1.266
- dihydroorotate [1]: 4.597
- orotate [1]: 0.259
- DLH [1]: -0.3174
- DLS/SDL/SID [1]: -0.3424
- PD [1]: -0.07917
- PEE [1]: -0.441
- PVNF [1]: -2.237
- 3-phosphoglycerate [1]: -0.1451
- ADP-D-glucose [1]: -0.07756
- ATP [1]: 0.1007
- CDP [1]: -0.7494
- D-sedoheptulose-1/7-phosphate [1]: -0.4438
- FAD [1]: -0.03171
- GMP [1]: 0.3554
- NAD+ [1]: 0.01671
- NADP+ [1]: -0.09002
- Octoluse Bisphosphate [1]: -0.2508
- Pyroglutamic acid [1]: 0.3744
- UDP-D-glucose [1]: -0.1169
- UDP-D-glucuronate [1]: -0.3093
- UDP-N-acetyl-glucosamine [1]: -0.3205
- UDP [1]: -0.9356
- UMP [1]: -0.7589
- UTP [1]: -1.3566
- a-ketoglutarate [1]: 0.2592
- citrate/isocitrate [1]: 0.4562
- cytidine [1]: 0.4629
- dATP [1]: 0.2611
- dGMP/AMP [1]: -0.1351
- fumarate [1]: 0.07736
- glucose-1/6-phosphate [1]: 0.1714
- glycerate [1]: 0.291
- guanine [1]: 0.4817
- guanosine [1]: 0.7569
- hypoxanthine [1]: 0.5204
- indole [1]: 0.3835
- inosine [1]: 0.4193
- 2_3-Diphosphoglyceric acid [1]: -0.1645
- 4-phosphopantothenate [1]: -0.3586
- 6-phospho-D-gluconate [1]: -0.1209
- FMN [1]: -0.2869
- IMP [1]: 0.1606
- Pyrophosphate [1]: -0.1573
- Sedoheptoluse bisphosphate [1]: -0.2556
- cyclic-AMP [1]: -0.1203
- glutathione disulfide [1]: -0.08653
- lactate [1]: 0.1751
- myo-inositol [1]: -0.2117
- nicotinate [1]: 0.4349
- ornithine [1]: 0.266
- phosphoenolpyruvate [1]: 0.01446
- pyruvate [1]: 0.3754
- ribose-phosphate [1]: -0.04013
- sarcosine/alanine [1]: -0.09301
- sn-glycerol-3-phosphate [1]: -0.3771
- succinate/methylmalonic acid [1]: 0.03069
- uridine [1]: 0.1532
- xanthosine [1]: 0.489
